Measurements from patent publication US10004730B2, “Small molecules targeting androgen receptor nuclear localization and/or level in prostate cancer” (University of Pittsburgh-Of the Commonwealth System of …, priority 2011, dated 2018).

Columns and labels:
[1] = biological target: T1, GFP-ER (Homo sapiens, UniProt P03372); test: GFP-ER nuclear localization in transfected C4-2 cells; assay type: cell-based; details: 24 hours
T1 construct: expressed in transfected cells; host or cells: C4-2
Experimental: FIG. 7. The effect of SID 14730725 and SID 3712502 on nuclear localization of GFP-ER (Top panel) and GFP-GR (Bottom panel) in C4-2 cells. C4-2 cells were transfected with GFP-ER or GFP-GR overnight. The following day the cells were treated with different concentrations (uM) of the small molecules. The cells transfected with GFP-GR were co-treated with 0.5 μM Dexamethasone. Cells were imaged 24 hours after the treatment with the small molecules.

[2] = tested on: PC3 tumors; test: PC3 xenograft tumors in castrated SCID mice; assay type: in vivo; details: i.p. 25 mg/kg every other day
Experimental: (§1) FIGS. 15A-B. SID 3712502 inhibited the growth of castration resistant 22Rv1 xenograft tumors (FIG. 15A), but not PC3 tumors (FIG. 15B). 22Rv1 or PC3 tumors were established by s.c. injection of 1×10^6 cells into young adult male SCID mice. SCID mice were castrated and randomized when tumor volume reached ˜400 uL. Mice received i.p. delivery of SID 3712502 (25 mg/kg body weight) or vehicle control EPL every other day, beginning 4 days after castration (injection indicated by arrows). Each group consisted of 10 mice for 22Rv1, and 8 mice for PC3 tumors. Tumor volumes were measured using micro-calipers and calculated using the formula (length×width^2)/2. Black and red lines represent data from the animals treated with vehicle (C) and SID 3712502 (SID), respectively. P value was calculated using a two-way ANOVA with the Bonferrroni correction (GraphPad). Error bars=SEM. **p<0.01.

[3] = tested on: PC3 cells; test: BrdU incorporation, PC3; assay type: cell-based; details: PC3, up to 50 uM, 48 hrs
Experimental: FIGS. 14A-F. Effect of SID 3712502 at indicated concentrations on BrdU incorporation in cultured AR-positive LNCaP (FIG. 14A), C4-2 (FIG. 14B), 22Rv1 (FIG. 14C), LAPC4 (FIG. 14D) cells, and AR-negative DU145 (FIG. 14E) and PC3 (FIG. 14F) cells. Cells were plated in 12-well plates at 2,500 cell per well in RPMI 1640 complete medium. After 24 hrs, the cells were treated with SID 3712502 at the indicated concentrations for 48 hrs and BrdU incorporation was assayed according to manufacturer's instructions (Invitrogen BrdU staining kit; catalog #: 93-3943). The percentage of BrdU-positive cells was determined and then normalized to generate relative BrdU index. Ctrl=DMSO control.

[4] = tested on: castration resistant 22Rv1 xenograft tumors; test: 22Rv1 xenograft tumors in castrated SCID mice; assay type: in vivo; details: i.p. 25 mg/kg every other day
Experimental: as §1

[5] = biological target: T2, GFP-AR (Homo sapiens, UniProt P10275); test: Localization of transiently transfected GFP-AR by fluorescence microscopy; assay type: cell-based; details: transfected C4-2 cells, complete RPMI with 10% FBS, overnight treatment
T2 construct: expressed in transfected cells; also PC3 and LNCaP (transient)
T2 sequence (P10275 1-920): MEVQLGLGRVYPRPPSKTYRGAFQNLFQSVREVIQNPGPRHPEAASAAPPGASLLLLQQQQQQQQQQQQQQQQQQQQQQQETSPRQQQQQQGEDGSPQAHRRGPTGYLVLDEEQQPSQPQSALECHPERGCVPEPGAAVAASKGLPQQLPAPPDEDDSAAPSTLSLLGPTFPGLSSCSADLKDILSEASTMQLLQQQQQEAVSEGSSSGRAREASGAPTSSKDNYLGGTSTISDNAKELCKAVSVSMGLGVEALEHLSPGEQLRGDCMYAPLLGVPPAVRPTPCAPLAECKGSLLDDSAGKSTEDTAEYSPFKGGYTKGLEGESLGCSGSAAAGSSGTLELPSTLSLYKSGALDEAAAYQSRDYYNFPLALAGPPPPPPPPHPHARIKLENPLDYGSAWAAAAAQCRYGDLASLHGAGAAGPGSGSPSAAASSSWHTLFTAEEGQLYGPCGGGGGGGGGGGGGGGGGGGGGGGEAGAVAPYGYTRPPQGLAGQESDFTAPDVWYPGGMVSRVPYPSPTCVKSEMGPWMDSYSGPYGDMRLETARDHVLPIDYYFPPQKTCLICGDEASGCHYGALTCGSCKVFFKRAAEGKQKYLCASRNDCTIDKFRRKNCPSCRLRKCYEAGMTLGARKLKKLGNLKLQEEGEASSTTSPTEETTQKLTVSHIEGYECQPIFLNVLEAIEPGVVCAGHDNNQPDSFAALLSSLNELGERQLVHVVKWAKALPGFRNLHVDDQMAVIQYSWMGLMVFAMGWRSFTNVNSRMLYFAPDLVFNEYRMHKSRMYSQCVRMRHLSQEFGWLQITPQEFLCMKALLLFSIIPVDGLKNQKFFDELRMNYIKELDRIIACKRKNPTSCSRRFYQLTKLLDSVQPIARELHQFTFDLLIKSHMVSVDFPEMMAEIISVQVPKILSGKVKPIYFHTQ
Experimental: FIGS. 2A and 2B. Localization of GFP-AR in AR-negative PC3, androgen-sensitive LNCaP, and CRPC C4-2 cells. […] PC3, LNCaP, and C4-2 cells were transfected with GFP-AR and localization was assessed in ligand-free conditions or in the presence of mibolerone by fluorescence microscopy within 24 hours of transfection. The results in FIG. 2B are from five transfections for each cell line in the absence of androgen. At least 50 cells were counted after each transfection. Error bars represent ±SEM.
FIGS. 3A and 3B. […] FIG. 3A. […] Localization was assessed by fluorescence microscopy 4 hours after treatment. FIG. 3B.
FIGS. 6A, 6B, 6C and 6D. FIG. 6A. […] FIG. 6B. […] C4-2 cells were transfected with GFP-AR and subcellular localization of GFP-AR was determined after overnight treatment using fluorescent microscopy. FIG. 6C. Quantitative analysis of results in FIG. 6B. […] FIG. 6D. […] Endogenous AR was detected by immunofluorescent staining using AR antibody N-20 (Santa Cruz Biotechnology). Nuclei were stained with Hoechst.
A prerequisite for AR transcriptional activity is its nuclear localization. To determine whether the subcellular localization of AR was altered during the progression to castration-resistance, AR-negative PC3 prostate cancer cells, androgen-sensitive LNCaP cells and castration-resistant C4-2 cells were transfected with AR tagged to green fluorescent protein (GFP) and localization was assessed by fluorescence microscopy in hormone-free conditions.
Hsp90 plays an important role in ligand-induced AR nuclear translocation. […] To determine if the effect of hsp90 inhibition on endogenous AR in C4-2 cells was similar to its effect on transfected GFP-AR, immunofluorescence experiments were performed.

[6] = Pilot toxicity experiment in mice; assay type: in vivo; details: all doses tested, highest 100 mg/kg; data not shown
Experimental: […]. […] A pilot experiment was also performed testing the toxicity of SID 3712502 in mice.

T1 sequence (P03372 whole entry): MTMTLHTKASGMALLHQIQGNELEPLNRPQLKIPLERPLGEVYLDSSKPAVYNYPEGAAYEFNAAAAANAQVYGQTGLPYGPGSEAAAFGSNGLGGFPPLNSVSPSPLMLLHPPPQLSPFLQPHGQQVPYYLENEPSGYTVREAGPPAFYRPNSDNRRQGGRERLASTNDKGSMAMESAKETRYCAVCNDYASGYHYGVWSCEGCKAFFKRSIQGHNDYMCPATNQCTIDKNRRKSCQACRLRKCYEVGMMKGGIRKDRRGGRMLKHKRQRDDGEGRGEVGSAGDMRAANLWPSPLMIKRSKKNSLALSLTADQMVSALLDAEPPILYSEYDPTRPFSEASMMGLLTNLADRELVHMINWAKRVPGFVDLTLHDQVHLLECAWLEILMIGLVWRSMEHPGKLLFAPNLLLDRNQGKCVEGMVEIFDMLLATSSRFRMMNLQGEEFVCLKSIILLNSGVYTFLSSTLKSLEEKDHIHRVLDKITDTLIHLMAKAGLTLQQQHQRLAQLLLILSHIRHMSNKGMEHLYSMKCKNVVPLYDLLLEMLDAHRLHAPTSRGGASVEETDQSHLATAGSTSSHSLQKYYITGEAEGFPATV

Cc1cccc(N2CCN(C(=O)CSCc3c(C)noc3C)CC2)c1C [SID 3712502, 2-[(3,5-dimethyl-1,2-oxazol-4-yl)methylsulfanyl]-1-[4-(2,3-dimethylphenyl)piperazin-1-yl]ethanone]
localization of GFP-ER [1]: no effect
growth of AR-negative PC3 tumor [2]: did not inhibit
proliferation (BrdU incorporation) [3]: no detectable effect
growth of 22Rv1 xenograft tumor [4]: significantly inhibited the growth
GFP-AR nuclear localization [5]: effectively inhibited
toxicity in mice [6]: no identifiable effect
